The record followed here is US20230391785A1, “NITROGEN-CONTAINING HETEROCYCLIC COMPOUND, METHOD FOR PREPARING SAME AND USE OF SAME” (280 Bio, Inc., priority 2021, published 2023).

Molecules are shown by their SMILES. Like-named read-outs stand apart in the source and are kept apart here.

What all share (format): cell-based
Assay [1] relates to NCI-H358 cells (KRAS G12C mutation). The experiment in a line: Proliferation inhibition measured by CTG (CellTiter Glo), NCI-H358. As to conditions: Homo sapiens, read-out: IC50 (H358). The text has this: (§1) NCI-H358 is a human non-small cell lung cancer cell line with KRAS G12C mutation; PANC-1 and AsPC-1 are pancreatic cancer cell lines with KRAS G12D mutation; AGS is a gastric cancer cell line with KRAS G12D mutation; A427 is a lung cancer cell line with KRAS G12D mutation; THP-1 is a leukemia cell line with NRAS G12D mutation; Hs 578T is a breast cancer cell line with HRAS G12D mutation; SW480 is a colon cancer cell lines with KRAS G12V mutation; A375 is a wild type malignant melanoma cell line. The proliferation inhibitory effect of the compounds on various mutations was evaluated by determining the proliferation inhibitory activity of the compounds on these cell lines.
(§2) The assay was conducted on either 384-well plates or 96-well plates. The procedures are as follows:
(§3) The cell suspensions were added to 384- or 96-well plates (384-well plate: 40 μL; 96-well plate: […]) except for peripheral wells. The plates were incubated in a carbon dioxide incubator overnight. Prepared compounds (10 concentration gradients by serial 3-fold dilution) were added to the wells. The cell plates were incubated in a carbon dioxide incubator for 120 hours. CellTiter Glo reagent (384 well plate: 25 μL; 96 well plate: 100 μL) was added to the 384- or 96-well plates. The plates were shaken for 10 minutes away from light, and incubated for 10 minutes. The plates were read by EnVision system. Inhibition curves were plotted using XLFit and IC50 values were calculated. “IC50>10 μM” is denoted by “*”, “10 μM≥IC50>1 μM” is denoted by “**”, “1 μM≥IC50>100 nM” is denoted by “***”, and “IC50≤100 nM” is denoted by “****”.

For assay [2], the system named is AsPC-1 pancreatic cancer cell line (KRAS G12D mutation). The experiment in a line: Proliferation inhibition measured by CTG (CellTiter Glo), AsPC-1. As to conditions: Homo sapiens, ASPC1.
Description: as §1, §2, §3
For orientation: Cellular ATP, detected with luciferase, serves as a proxy for viable cell number.

The test system of assay [3] is AGS gastric cancer cell line (KRAS G12D mutation). The experiment in a line: Proliferation inhibition measured by CTG (CellTiter Glo), AGS. As to conditions: CTG, 120 hours incubation, class symbol, read-out: IC50 (AGS).
Description: as §1, §2, §3

The test system of assay [4] is Hs 578T breast cancer cell line (HRAS G12D mutation). The experiment in a line: Proliferation inhibition measured by CTG (CellTiter Glo), Hs 578T. To be noted: Homo sapiens, Table 1, CTG, 120 hours incubation, class symbol.
Description: as §1, §2, §3

Assay [5] has as its system THP-1 leukemia cell line (NRAS G12D mutation). The experiment in a line: Proliferation inhibition measured by CTG (CellTiter Glo), THP-1. As to conditions: Homo sapiens, Table 1, CTG, 120 hours incubation, class symbol.
Description: as §1, §2, §3

The subject of assay [6] is A375 wild type malignant melanoma cell line. The experiment in a line: Proliferation inhibition measured by CTG (CellTiter Glo), A375. As to conditions: Homo sapiens, A-375, read-out: IC50 (A375).
Description: as §1, §2, §3

Assay [7] has as its system SW480 colon cancer cell line (KRAS G12V mutation). In words: Proliferation inhibition measured by CTG (CellTiter Glo), SW480. As to conditions: Homo sapiens, Table 3, 120 hours incubation, class symbol, read-out: IC50 (SW480).
Description: as §1, §2, §3

Setting [8] is: Table 1, CTG, 120 hours incubation, class symbol.
The mark [9] stands for this setting: Table 3, CTG, 120 hours incubation, class symbol.

As for `Clc1cccc2cccc(N3CCc4c(nc(OCC56CCCN5CCC6)nc4N4CCn5cncc5C4)C3)c12` [Compound 24], the IC50 (in general, the concentration at which inhibition is half-maximal) in assay [1] (setting [8]) was 0.1 to 1 µM; in assay [2] (setting [8]) it was 1 to 10 µM; in assay [3] (Table 1), 1 to 10 µM; in assay [4] it was over 10 µM; in assay [5], 0.1 to 1 µM; in assay [6] (setting [8]), 0.1 to 1 µM.
Turning to `CN1CCC[C@H]1COc1nc2c(c(N3CCn4cncc4C3)n1)CO[C@H](c1cccc3cccc(Cl)c13)C2` [Compound 3], the IC50 in assay [1] (setting [8]) was in the range of 0.1 to 1 µM; in assay [2] (setting [8]) it was 1 to 10 µM; in assay [6] (setting [8]), 1 to 10 µM.
On to `C[C@@H]1Cn2cnc(F)c2CN1c1nc(OC[C@@H]2CCCN2C)nc2c1CCN(c1cc(O)cc3cccc(Cl)c13)C2` [Compound 78], for which the IC50 in assay [1] (setting [9]), in assay [3] (Table 3), in assay [6] (setting [9]) and in assay [7] was at most 0.1 µM throughout.
As to `C[C@@H]1Cn2cncc2CN1c1nc(OC[C@@H]2CCCN2C)nc2c1CCN(c1cccc3ccccc13)C2` [Compound 68], the IC50 in assay [1] (setting [9]) was at most 0.1 µM; in assay [3] (Table 3), at most 0.1 µM; in assay [6] (setting [9]), 0.1 to 1 µM; in assay [7], at most 0.1 µM.
Regarding `C[C@@H]1Cn2cncc2CN1c1nc(OC[C@@H]2CCCCN2C)nc2c1CCN(c1cccc3cccc(Cl)c13)C2` [Compound 64], the IC50 in assay [1] (setting [9]), in assay [3] (Table 3), in assay [6] (setting [9]) and in assay [7] was at most 0.1 µM throughout.
Regarding `CN1CCC[C@H]1COc1nc2c(c(N3CCc4cnoc4C3)n1)CCN(c1cccc3cccc(Cl)c13)C2` [Comparative compound 1′, reference compound], the IC50 is over 10 µM in assay [1] (setting [8]); 17.2 µM in assay [1] (Table 1, number in parentheses, no unit printed in Table 1 (Table 2 gives the same values of compound 2 in μM)); 39.7 µM in assay [2] (Table 1, number in parentheses, unit not given in Table 1 (legend and Table 2 use μM)); over 10 µM in assay [2] (setting [8]); 22.7 µM in assay [6] (Table 1, number in parentheses, unit not given in Table 1 (Table 2 gives the same value in μM)); over 10 µM in assay [6] (setting [8]).
`C[C@@H]1Cn2cnc(F)c2CN1c1nc(OC[C@@H]2CCCCN2C)nc2c1CCN(c1cccc3cccc(Cl)c13)C2` [Compound 99]: the half-maximal inhibitory concentration (IC50) in assay [1] (setting [9]), in assay [3] (Table 3), in assay [6] (setting [9]) and in assay [7] was at most 0.1 µM throughout.
`C[C@@H]1Cn2cncc2CN1c1nc(OC[C@@H]2CCCN2C)nc2c1CCN(c1cc(OC(=O)N(C)C)cc3cccc(Cl)c13)C2` [Compound 82]: the IC50 in assay [1] (setting [9]) was 0.1 to 1 µM; in assay [3] (Table 3) it was at most 0.1 µM; in assay [6] (setting [9]) it was 0.1 to 1 µM; in assay [7], 0.1 to 1 µM.
For `C[C@@H]1Cn2cncc2CN1c1nc(OC2CN(C)C2)nc2c1CCN(c1cccc3cccc(Cl)c13)C2` [Compound 74], the IC50 in assay [1] (setting [9]) lay in the range of 0.1 to 1 µM; in assay [3] (Table 3), 0.1 to 1 µM; in assay [6] (setting [9]) it was 1 to 10 µM; in assay [7], 0.1 to 1 µM.
Regarding `C[C@@H]1Cn2cnc(F)c2CN1c1nc(OC[C@@H]2CCCN2C)nc2c1CCN(c1cc(OC(=O)N(C)C)cc3cccc(Cl)c13)C2` [Compound 97], the IC50 in assay [1] (setting [9]) was at most 0.1 µM; in assay [3] (Table 3), at most 0.1 µM; in assay [6] (setting [9]), 0.1 to 1 µM; in assay [7], at most 0.1 µM.
For `C[C@@H]1Cn2cncc2CN1c1nc(OC[C@@H]2CCCN2C)nc2c1CCN(c1cccc3c1CCCC3)C2` [Compound 84], the half-inhibitory concentration (IC50) is 1 to 10 µM in assay [1] (setting [9]), 0.1 to 1 µM in assay [3] (Table 3), 1 to 10 µM in assay [6] (setting [9]) and 0.1 to 1 µM in assay [7].
In the case of `CC(=O)Nc1cc(N2CCc3c(nc(OC[C@@H]4CCCN4C)nc3N3Cc4c(F)ncn4C[C@H]3C)C2)c2c(Cl)cccc2c1` [Compound 111], the IC50 lay within 1 to 10 µM in assay [1] (setting [9]), 1 to 10 µM in assay [3] (Table 3), 1 to 10 µM in assay [6] (setting [9]) and 0.1 to 1 µM in assay [7].
With `CC(C)[C@@H](N)C(=O)Oc1cc(N2CCc3c(nc(OC[C@@H]4CCCN4C)nc3N3Cc4c(F)ncn4C[C@H]3C)C2)c2c(Cl)cccc2c1` [Compound 101], the IC50 in assay [1] (setting [9]), in assay [3] (Table 3), in assay [6] (setting [9]) and in assay [7] was at most 0.1 µM in each case.
On to `C[C@@H]1Cn2cncc2CN1c1nc(OC[C@@H]2CCCN2C)nc2c1CCN(c1cc(O)cc3ccccc13)C2` [Compound 66], for which the half-maximal inhibitory concentration (IC50) in assay [1] (setting [9]) is at most 0.1 µM; in assay [3] (Table 3) it was at most 0.1 µM; in assay [6] (setting [9]) it was 0.1 to 1 µM; in assay [7], 0.1 to 1 µM.
On to `C[C@@H]1Cn2cnc(F)c2CN1c1nc(OC[C@@H]2CCCN2C)nc2c1CO[C@H](c1cccc3cccc(Cl)c13)C2` [Compound 104], for which the IC50 in assay [1] (setting [9]), in assay [3] (Table 3), in assay [6] (setting [9]) and in assay [7] was 0.1 to 1 µM each time.
With `C[C@@H]1Cn2cnc(F)c2CN1c1nc(OC[C@@H]2CCCN2C)nc2cc(-c3cccc4cccc(Cl)c34)ccc12` [Compound 88], the 50% inhibitory concentration (IC50) in assay [1] (setting [9]) was at most 0.1 µM; in assay [3] (Table 3), at most 0.1 µM; in assay [6] (setting [9]), 0.1 to 1 µM; in assay [7], at most 0.1 µM.
Regarding `CCc1ccc(NC(=O)Oc2cc(N3CCc4c(nc(OC[C@@H]5CCCN5C)nc4N4Cc5c(F)ncn5C[C@H]4C)C3)c3c(Cl)cccc3c2)cc1` [Compound 103], the IC50 in assay [1] (setting [9]), in assay [3] (Table 3), in assay [6] (setting [9]) and in assay [7] was at most 0.1 µM each time.
Consider `CN1CCC[C@H]1COc1nc2c(c(N3CCn4c(cnc4-c4ccccc4)C3)n1)CCN(c1cccc3cccc(Cl)c13)C2` [Compound 50], for which the IC50 in assay [1] (setting [9]), in assay [3] (Table 3), in assay [6] (setting [9]) and in assay [7] was 1 to 10 µM in each case.
Regarding `Cc1cccc(N)c1C(=O)Oc1cc(N2CCc3c(nc(OC[C@@H]4CCCN4C)nc3N3Cc4c(F)ncn4C[C@H]3C)C2)c2c(Cl)cccc2c1` [Compound 102], the IC50 in assay [1] (setting [9]), in assay [3] (Table 3), in assay [6] (setting [9]) and in assay [7] was at most 0.1 µM each time.
For `CNC(=O)Oc1cc(N2CCc3c(nc(OC[C@@H]4CCCN4C)nc3N3Cc4c(F)ncn4C[C@H]3C)C2)c2c(Cl)cccc2c1` [Compound 98], the IC50 in assay [1] (setting [9]), in assay [3] (Table 3), in assay [6] (setting [9]) and in assay [7] was at most 0.1 µM in each case.
On to `C[C@@H]1Cn2cnc(F)c2CN1c1nc(OC[C@@H]2CCCN2C)nc2c1CCN(c1cc(N)cc3cccc(Cl)c13)C2` [Compound 110], for which the IC50 in assay [1] (setting [9]), in assay [3] (Table 3), in assay [6] (setting [9]) and in assay [7] was at most 0.1 µM throughout.
As to `CC[C@@H]1Cn2cncc2CN1c1nc(OC[C@@H]2CCCN2C)nc2c1CCN(c1cccc3cccc(Cl)c13)C2` [Compound 107], the IC50 in assay [1] (setting [9]), in assay [3] (Table 3), in assay [6] (setting [9]) and in assay [7] was at most 0.1 µM each time.
In the case of `C[C@@H]1Cn2cnc(F)c2CN1c1nc(OC[C@@H]2CCCN2C)nc2cc(-c3cc(OC(=O)C(C)(C)C)cc4cccc(Cl)c34)ccc12` [Compound 92], the IC50 in assay [1] (setting [9]), in assay [3] (Table 3), in assay [6] (setting [9]) and in assay [7] was at most 0.1 µM in each case.
Take `[2H]C([2H])([2H])N1CCC[C@H]1COc1nc2c(c(N3Cc4cncn4C[C@H]3C)n1)CCN(c1cccc3cccc(Cl)c13)C2` [Compound 77]: the 50% inhibitory concentration (IC50) in assay [1] (setting [9]), in assay [3] (Table 3), in assay [6] (setting [9]) and in assay [7] was at most 0.1 µM each time.
As for `C[C@@H]1Cn2cnc(F)c2CN1c1nc(OC[C@@H]2CCCN2C)nc2c1CCN(c1cccc3cccc(F)c13)C2` [Compound 106], the IC50 in assay [1] (setting [9]), in assay [3] (Table 3), in assay [6] (setting [9]) and in assay [7] was at most 0.1 µM each time.
Consider `Cc1ncc2n1CCN(c1nc(OC[C@@H]3CCCN3C)nc3c1CCN(c1cccc4cccc(Cl)c14)C3)C2` [Compound 5], for which the half-inhibitory concentration (IC50) in assay [1] (setting [8]), in assay [2] (setting [8]) and in assay [6] (setting [8]) was 1 to 10 µM throughout.
